Experimental data: patent US20250352615A1, “COMPOSITIONS AND METHODS FOR THE MODULATION OF PIEZO1 AND TRPV4” (Duke University, priority 2021, published 2025)

Tested on: pancreas
Assay: Yoda1 pancreatic duct infusion pancreatitis model
Format: in vivo, mouse
Details: Yoda1 0.4 mg/kg infused into the pancreatic duct
Experimental: Laparotomy surgery was performed both in pancreatic partial duct ligation- and retrograde pancreatic duct infusion-mediated pancreatitis experiments as previously described by Romac et al., Nat. Commun. 9(1):1715 (2018). Yoda1 at a dose of 0.4 mg/kg in 50 μL 1.1% dimethylsulfoxide, 4.8% ethanol, and 94.1% buffered saline was injected. In Yoda1-mediated pancreatitis, the midportion of the pancreas (about 100-125 mg) was carefully excised and used for biochemical assays and histological staining. Histological scoring was evaluated from the entire section. Partial PDL was performed as previously described. Using a stereo microscope, the tail region of the pancreas was visualized, and the main pancreatic duct was ligated carefully with 6-0 Prolene suture without damaging the left portal vein that separates the splenic lobe and gastroduodenal part of the pancreas. […]
Serum amylase concentration was measured by a colorimetric method after reaction with substrate using the Phadebas Amylase Test Tablet (Magle Life Sciences) and the Tecan-infinite M200 Pro plate reader.
MPO was measured using previously described methods with modifications. […] To calculate the mU of MPO/mg of protein, the protein concentrations of the supernatants were measured using the Micro BCA Protein Assay Kit (Thermo Fisher Scientific; 23235). […]

## Clc1cccc(Cl)c1CSc1nnc(-c2cnccn2)s1 [Yoda1]
  pancreatitis in TRPV4-KO mice: did not cause pancreatitis in TRPV4-KO mice
WT mice
  pancreatitis parameters (pancreatic edema, serum amylase, pancreatic MPO, histological scoring): increased all pancreatitis parameters measured
